In patent US20220015404A1, “TRAUMATIC ACID COMPOSITIONS AND METHODS FOR TASTE MODULATION” (INTERNATIONAL FLAVORS & FRAGRANCES INC., priority 2018, published 2022):

Tests used:
Format in all cases: in vivo
[1] = Descriptive sensory evaluation in sugar water (4% sucrose in drinking water); conditions: 5 ppm in sugar water (4% sucrose in drinking water), vs base solution
Procedure: Sugar water (4% sucrose in drinking water) was prepared and used as a base solution. Different amounts of traumatic acid were added to the base solution and descriptive sensory evaluations were performed (Table 1).
Sugar water (4% sucrose in drinking water) was prepared and used as a base solution. Traumatic acid and 3-dodecenedioic acid were added to the base solution and descriptive sensory evaluations were performed (Table 2).

[2] = Descriptive sensory evaluation in sweetened milk (2% fat milk with 2% sucrose); conditions: 2 ppm of each acid in sweetened milk (2% fat milk with 2% sucrose), vs base
Procedure: Sweetened milk (2% fat milk with 2% sucrose) was prepared and used as a base solution (“base”).

[3] = Comparison of sweetness and mouthfeel enhancement and off-flavor masking with analogs; conditions: 5 ppm, compared with mesaconic acid, glutaconic acid, trans-β-Hydromuconic acid, e-oct-4ene-1, 8-dioic acid
[4] = Descriptive sensory evaluation of traumatic acid in different applications
Procedure: Descriptive sensory evaluations were carried out using different amounts of traumatic acid in different applications.

O=C(O)CC=CCCCCCCCC(=O)O [3-Dodecenedioic acid, 3-dodecenedioic acid]
Taste Evaluation [1]: enhanced the sweetness and mouthfeel of sugar water

O=C(O)CCCCCCCCC(=O)O [Sebacic Acid, sebacic acid]
Taste Evaluation [2]: increased sweetness and mouthfeel of sweetened milk

O=C(O)/C=C/CCCCCCCCC(=O)O [Traumatic acid, traumatic acid]
Taste Evaluation [1]: enhanced the sweetness and mouthfeel of sugar water
Taste Evaluation [2]: increased sweetness and mouthfeel of sweetened milk
sweetness and mouthfeel enhancement as well as off-flavor masking [3]: exhibited the strongest and the longest-lasting effect
Taste Evaluation ([4]; 40 ppm in 3% Sugar + 0.05% Citric Acid Water Solution): Fatty and oily
Taste Evaluation ([4]; 40 ppm in Water, vs same application without traumatic acid): Fatty and oily
